Reference: patent US10611741B2, “Substituted benzoxazine and related compounds” (THE J. DAVID GLADSTONE INSTITUTES, A TESTAMENTARY TRUST …, priority 2014, dated 2020)

How the values were obtained:
Rat neurons = assay: Neuron autophagy assay (flux LC3 assay, conversion of photoconvertible reporter); assay type: cell-based; settings: tested at 5, 10, 50, 200, 500, 1000 nM, overnight treatment, read-out: concentration at which active (neuronal autophagy induction)
Protocol: The induction of neuronal autophagy herein was measured by the conversion of photoconvertible reporter in a flux LC3 assay, as described in Tsvetkov et al., Nature Chemical Biology, 9:586-592 (2013), which is incorporated herein by reference.
mApple, kindly provided by Kurt Thorn of the Nikon microscopy core at UCSFR, was cloned into the pGW1 vector. pGW1-GFP and pGW1-Htt^exl-Q97-GFP were transfected according to normal protocols.
Cell cultures included striata, cortices, and hippocampi from rat embryos or newborn (postnatal day 0) mice were dissected, dissociated, and plated on 96-well tissue culture plates coated with poly-D-lysine and laminin. Cells were cultured for 4 days in neurobasal medium with L-glutamine and B-27 before use.
Rat neurons were transfected with plasmids using lipofectamine, treated overnight with vehicle (DMSO) or 5, 10, 50, 200, 500, and 1000 nM of exemplifying compounds and imaged everyday, once a day, for 7 days. […] Kolmogrov-Smirnov statistics test was used to calculate P values.

[1] = system: primary neurons transfected with exon 1 of mHtt protein containing 97 poly-glutamines; assay: Neuronal death assay (primary rodent neuron cellular model of HD, survival by robotic microscopy); assay type: cell-based; settings: for protecting neurons from mHtt toxicity: in words
Protocol: The compounds were tested in a primary rodent neuron cellular model of HD. In this disease model, neurons from the striatum, the site of severe pathology in HD, are transfected with full-length or N-terminal fragments of wild-type Htt or mHtt. The model recapitulates cellular and molecular features seen in HD, including mHtt-dependent neurodegeneration. To use the model in drug discovery, striatal neurons are co-transfected with fluorescently tagged mHtt and marker proteins and examined longitudinally using an automated fluorescent microscopy system (U.S. Pat. No. 7,139,415, incorporated by reference in its entirety). Neurons that express mHtt are periodically imaged, and the loss of fluorescence of the marker protein corresponds to cell death. Importantly, the automated system monitors how mHtt affects neuronal survival by following single cells longitudinally, distinguishing transfected neurons from non-transfected cells. Neurodegeneration is quantified by the difference in survival time between neuronal cells expressing mHtt and neuronal cells expressing wild-type Htt; drugs that increase neuronal survival in neurons expressing mHtt are neuroprotective. Hazard functions are determined by Cox proportional hazards (CPH) analysis to create hazard ratios that are the estimated instantaneous risk of death of individual cells, independent of population size.
Exemplifying compounds were tested for protecting neurons from mHtt toxicity. For this survival assay, primary neurons were transfected with a construct expressing exon 1 of mHtt protein containing 97 poly-glutamines and a fluorescent reporter to track the neurons. Neurons were imaged for 7 days using automated fluorescent robotic microscopy and analyzed for survival. Fluphenazine (Compound N) at 100 nM was used as positive control. DMSO was used as negative control.

[2] = Table 4, dose 50 nM, mHtt neurons, imaged 7 days
[3] = Table 5, dose 10 nM, mHtt neurons, imaged 7 days
[4] = Table 3, dose 200 nM, mHtt neurons, imaged 7 days

Row | Compound | minimal effective concentration (Rat neurons) | Hazard Ratio [1, 2] | protecting neurons from mHtt toxicity [1] | other results
1 | Cc1ccc2c(c1)N(CCN1CCN(C)CC1)C(=O)CO2 [G, 6-methyl-4-(2-(4-methylpiperazin-1-yl)ethyl)-2H-benzo[b][1,4]oxazin-3(4H)-one] | < 0.05 µM | – | – | –
2 | Cc1ccc2c(c1)N(C(=O)CN1CCN(C(C)C)CC1)CCO2 [P, 1-(6-methyl-2,3-dihydro-1,4-benzoxazin-4-yl)-2-(4-propan-2-ylpiperazin-1-yl)ethanone] | – | 0.7384 | active at nM concentrations | Hazard Ratio [1, 3]: 0.6275
3 | Cc1ccc2c(c1)N(C(=O)CN1CCN(c3ccccc3)CC1)CCO2 [Compound K, 1-(6-methyl-2,3-dihydro-4H-benzo[b][1,4]oxazin-4-yl)-2-(4-phenylpiperazin-1-yl)ethan-1-one] | – | – | active at nM concentrations | Hazard Ratio [1, 4]: 0.9209
4 | Cc1ccc2c(c1)N(CC(=O)N1CCN(C)CC1)C(=O)CO2 [I, 6-methyl-4-(2-(4-methylpiperazin-1-yl)-2-oxoethyl)-2H-benzo[b][1,4]oxazin-3(4H)-one] | < 0.05 µM | – | – | –
5 | Cc1ccc2c(c1)N(C(=O)CN1CCN(C)CC1)CCO2 [B, 1-(6-methyl-2,3-dihydro-4H-benzo[b][1,4]oxazin-4-yl)-2-(4-methylpiperazin-1-yl)ethan-1-one] | < 0.05 µM | – | – | –
6 | Cc1ccc2c(c1)N(CCC(=O)N1CCN(C)CC1)CCO2 [F, 3-(6-methyl-2,3-dihydro-4H-benzo[b][1,4]oxazin-4-yl)-1-(4-methylpiperazin-1-yl)propan-1-one] | < 0.05 µM | – | – | –
7 | Cc1ccc2c(c1)N(C(=O)CCN1CCN(C)CC1)CCO2 [A, 1-(6-methyl-2,3-dihydro-4H-benzo[b][1,4]oxazin-4-yl)-3-(4-methylpiperazin-1-yl)propan-1-one] | < 0.05 µM | – | – | –
8 | Cc1ccc2c(c1)N(C(=O)CC1CCN(C)CC1)CCO2 [L, 1-(6-methyl-2,3-dihydro-4H-benzo[b][1,4]oxazin-4-yl)-2-(1-methylpiperidin-4-yl)ethan-1-one] | – | – | active at nM concentrations | Hazard Ratio [1, 4]: 0.9143
9 | Cc1ccc2c(c1)N(CCN1CCN(C)CC1)CCO2 [Compound D, 6-methyl-4-(2-(4-methylpiperazin-1-yl)ethyl)-3,4-dihydro-2H-benzo[b][1,4]oxazine] | < 0.05 µM | – | active at nM concentrations | Hazard Ratio ([1]; Table 3, dose 10 nM, mHtt neurons, imaged 7 days): 0.9161
10 | Cc1ccc2c(c1)N(CC(=O)N1CCN(CCO)CC1)CCO2 [Q, 1-[4-(2-hydroxyethyl)piperazin-1-yl]-2-(6-methyl-2,3-dihydro-1,4-benzoxazin-4-yl)ethanone] | – | 0.5709 | active at nM concentrations | Hazard Ratio [1, 3]: 0.558
11 | Cc1ccc2c(c1)N(C(=O)CN1CCN(C3CCCCC3)CC1)CCO2 [O, 2-(4-cyclohexylpiperazin-1-yl)-1-(6-methyl-2,3-dihydro-1,4-benzoxazin-4-yl)ethanone] | – | 0.5747 | active at nM concentrations | –
12 | COCCN1CCN(C(=O)CN2CCOc3ccc(C)cc32)CC1 [R, 1-[4-(2-methoxyethyl)piperazin-1-yl]-2-(6-methyl-2,3-dihydro-1,4-benzoxazin-4-yl)ethanone] | – | 0.7345 | active at nM concentrations | Hazard Ratio [1, 3]: 0.7036
13 | Cc1ccc2c(c1)N(CC(=O)N1CCN(CCNS(C)(=O)=O)CC1)CCO2 [Compound S, N-[2-[4-[2-(6-methyl-2,3-dihydro-1,4-benzoxazin-4-yl)acetyl]piperazin-1-yl]ethyl]methanesulfonamide] | – | 0.6953 | active at nM concentrations | –
14 | Cc1ccc2c(c1)N(CC(=O)N1CCN(C)CC1)CCO2 [E, 2-(6-methyl-2,3-dihydro-4H-benzo[b][1,4]oxazin-4-yl)-1-(4-methylpiperazin-1-yl)ethan-1-one] | < 0.05 µM | – | active at nM concentrations | Hazard Ratio ([1]; Table 3, dose 50 nM, mHtt neurons, imaged 7 days): 0.8952
15 | OCCN1CCN(CCCN2c3ccccc3Sc3ccc(C(F)(F)F)cc32)CC1 [Compound N, 2-(4-(3-(2-(trifluoromethyl)-10H-phenothiazin-10-yl)propyl)piperazin-1-yl)ethan-1-ol, reference compound] | – | – | – | Hazard Ratio ([1]; Table 3, dose 100 nM, positive control): 0.8553; Hazard Ratio ([1]; Table 4, dose 100 nM, positive control): 0.7018; Hazard Ratio ([1]; Table 5, dose 100 nM, positive control): 0.5273
16 | Cc1ccc2c(c1)N(CCCN1CCN(C)CC1)CCO2 [C, 6-methyl-4-(3-(4-methylpiperazin-1-yl)propyl)-3,4-dihydro-2H-benzo[b][1,4]oxazine] | < 0.05 µM | – | – | –
